Earlier results in patent publication EP4796171A2 (Zealand Pharma A/S, priority 2017, dated 2018).

Details: background statement; cited from earlier work

CC[C@H](C)[C@H](NC(=O)[C@H](Cc1ccccc1)NC(=O)[C@H](CC(=O)O)NC(=O)[C@H](CCCNC(=N)N)NC(=O)[C@H](C)NC(=O)[C@H](C)NC(=O)[C@H](CC(C)C)NC(=O)[C@H](CC(N)=O)NC(=O)[C@H](CC(=O)O)NC(=O)[C@H](CC(C)C)NC(=O)[C@@H](NC(=O)[C@@H](NC(=O)[C@H](CC(N)=O)NC(=O)[C@H](CCSC)NC(=O)[C@H](CCC(=O)O)NC(=O)[C@H](CC(=O)O)NC(=O)[C@H](CO)NC(=O)[C@H](Cc1ccccc1)NC(=O)[C@H](CO)NC(=O)CNC(=O)[C@H](CC(=O)O)NC(=O)CNC(=O)[C@@H](N)Cc1c[nH]cn1)[C@@H](C)O)[C@@H](C)CC)C(=O)N[C@@H](CC(N)=O)C(=O)N[C@@H](Cc1c[nH]c2ccccc12)C(=O)N[C@@H](CC(C)C)C(=O)N[C@H](C(=O)N[C@@H](CCC(N)=O)C(=O)N[C@H](C(=O)N[C@@H](CCCCN)C(=O)N[C@H](C(=O)N[C@H](C(=O)N[C@@H](CC(=O)O)C(=O)O)[C@@H](C)O)[C@@H](C)CC)[C@@H](C)O)[C@@H](C)CC [Teduglutide]
Half-life: about two
